Data reported in US20090312349A1, “ANTI-INFLAMMATORY MEDICAMENTS” (priority 2004, published 2009).

Target: T1, phospho p-38 alpha kinase (Homo sapiens, UniProt Q16539)
T1 construct: purchased Panvera
Assay: P-38 alpha kinase assay (spectrophotometric, pyruvate kinase/lactate dehydrogenase coupled)
Format: biochemical
Conditions: Table 5; for IC50: assay not named, read-out: uM
Method: In this assay, the oxidation of NADH was continuously measured spectrophometrically. […] The reaction was initiated by adding ATP. The absorption at 340 nm was monitored continuously for up to 4 hours at 30° C. on Polarstar Optima plate reader (BMG). The kinase activity (reaction rate) was calculated from the slope at the time frame from 1.5 h to 2 h.
For inhibition determinations, test compounds were incubated with the reaction mixture for ˜5 min before adding ATP to start the reaction. […] IC50 values were calculated from a series of % inhibition values determined at a range of concentrations of each inhibitor using Prism to process the data and fit inhibition curves. Generally, the rates obtained at the time frame of 1.5 h to 2 h were used for these calculations.

T1 sequence (Q16539 whole entry): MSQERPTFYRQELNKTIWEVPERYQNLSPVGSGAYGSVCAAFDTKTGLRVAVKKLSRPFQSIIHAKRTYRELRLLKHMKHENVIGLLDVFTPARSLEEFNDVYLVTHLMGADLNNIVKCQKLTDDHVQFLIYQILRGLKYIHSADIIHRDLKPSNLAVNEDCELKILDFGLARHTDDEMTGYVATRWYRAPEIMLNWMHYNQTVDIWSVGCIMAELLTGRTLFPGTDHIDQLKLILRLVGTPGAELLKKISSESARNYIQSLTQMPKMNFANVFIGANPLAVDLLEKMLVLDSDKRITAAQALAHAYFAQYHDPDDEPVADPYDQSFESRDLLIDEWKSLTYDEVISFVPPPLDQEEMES

| SMILES | IC50 [µM] | also measured |
| --- | --- | --- |
| CCOC(=O)c1ccc(-n2nc(C)cc2NC(=O)Nc2cccc(Cl)c2Cl)cc1 [Example 346, ethyl 4-{5-[3-(2,3-dichlorophenyl)ureido]-3-methyl-1H-pyrazol-1-yl}benzoate] | – | % @ concentration, uM (@ 0.1 uM): 19%; % @ concentration, uM (@ 1 uM): 63% |
| Cc1cc(NC(=O)Nc2cccc(Cl)c2Cl)n(-c2ccc(CO)cc2)n1 [Example 347, 1-(2,3-dichlorophenyl)-3-{1-[4-(hydroxymethyl)phenyl]-3-methyl-1H pyrazol-5-yl}urea] | – | % @ concentration, uM (@ 0.1 uM): 8%; % @ concentration, uM (@ 1 uM): 31% |
| Cc1cc(NC(=O)Nc2cccc3ccccc23)n(-c2ccc(C(O)C(F)(F)F)cc2)n1 (centres unmarked) [Example 348, 1-{3-methyl-1-[4-(2,2,2-trifluoro-1-hydroxyethyl)phenyl]-1H-pyrazol-5-yl}-3-(naphthalen-1-yl)urea] | – | % @ concentration, uM (@ 0.1 uM): 17%; % @ concentration, uM (@ 1 uM): 47% |
| CC(C)c1cc(NC(=O)Nc2cccc3ccccc23)n(-c2cccc(C=O)c2)n1 [Example 350, 1-[1-(3-formylphenyl)-3-isopropyl-1H-pyrazol-5-yl]-3-(naphthalen-1-yl)urea] | – | % @ concentration, uM (@ 0.1 uM): 39%; % @ concentration, uM (@ 1 uM): 64% |
| O=C(Nc1cccc(Cl)c1)Nc1cc(-c2ccccc2)nn1-c1cccc(CO)c1 [Example 352, 1-{3-phenyl-1-[3-(hydroxymethyl)phenyl]-1H-pyrazol-5-yl}-3-(3-chlorophenyl)urea] | 0.043 | – |
| O=C(Nc1cccc(C(F)(F)F)c1)Nc1cc(-c2ccccc2)nn1-c1cccc(CO)c1 [Example 354, 1-{3-phenyl-1-[3-(hydroxymethyl)phenyl]-1H-pyrazol-5-yl}-3-(3-trifluoromethylphenyl)urea] | 0.11 | – |
| COc1cccc(NC(=O)Nc2cc(-c3ccccc3)nn2-c2cccc(CO)c2)c1 [Example 355, 1-{3-phenyl-1-[3-(hydroxymethyl)phenyl]-1H-pyrazol-5-yl}-3-(3-methoxyphenyl)urea] | 0.042 | – |
| CCOC(=O)c1ccc(-n2nc(C(C)(C)C)cc2NC(=O)Nc2cccc3ccccc23)cc1 [Example 357, ethyl 4-{3-t-butyl-5-[3-(naphthalen-1-yl)ureido]-1H-pyrazol-1-yl}benzoate] | 0.13 | – |
| CC(C)(C)c1cc(NC(=O)Nc2cccc3ccccc23)n(-c2ccc(CO)cc2)n1 [Example 358, 1-{3-t-butyl-1-[4-(hydroxymethyl)phenyl]-1H-pyrazol-5-yl}-3-(naphthalen-1-yl)urea] | 0.1 | – |
| CC(O)c1ccc(-n2nc(C(C)(C)C)cc2NC(=O)Nc2cccc3ccccc23)cc1 (centres unmarked) [Example 360, 1-{3-t-butyl 1-[4-(1-hydroxyethyl)phenyl]-1H-pyrazol-5-yl}-3-(naphthalen-1-yl)urea] | 0.39 | – |
| C#CC(O)c1ccc(-n2nc(C(C)(C)C)cc2NC(=O)Nc2cccc3ccccc23)cc1 (centres unmarked) [Example 361, 1-{3-t-butyl-1-[4-(1-hydroxyprop-2-ynyl)phenyl]-1H-pyrazol-5-yl}-3-(naphthalen-1-yl)urea] | 0.87 | – |
| CC(C)(C)c1cc(NC(=O)Nc2cccc(Cl)c2Cl)n(-c2ccc(CO)cc2)n1 [Example 363, 1-{3-t-butyl-1-[(hydroxymethyl)phenyl]-1H-pyrazol-5-yl}-3-(2,3-dichloro-phenyl)urea] | 0.19 | – |
| CC(C)(C)c1cc(NC(=O)Nc2cccc(Cl)c2Cl)n(-c2ccc(C(C)(C)O)cc2)n1 [Example 364, 1-{3-t-butyl-1-[4-(2-hydroxypropan-2-yl)phenyl]-1H-pyrazol-5-yl}-3-(2,3-dichlorophenyl)urea] | 0.01 | – |
| CC(C)(C)c1cc(NC(=O)Nc2cccc(Cl)c2Cl)n(-c2ccc(C(=O)O)cc2)n1 [Example 365, 4{-3-t-butyl-5-[3-(2,3-dichlorophenyl)ureido]-1H-pyrazol-1-yl}benzoic acid] | 0.007 | – |
| CCOC(=O)c1cccc(-n2nc(C(C)(C)C)cc2NC(=O)Nc2cccc3ccccc23)c1 [Example 366, ethyl 3-{3-t-butyl-5-[3-(naphthalen-1-yl)ureido]-1H-pyrazol-1-yl}benzoate] | – | % @ concentration, uM (@ 10 uM): 53% @ 10 |
| CC(C)(C)c1cc(NC(=O)Nc2cccc3ccccc23)n(-c2cccc(CO)c2)n1 [Example 367, 1-{3-t-butyl-1-[3-(hydroxymethyl)phenyl]-1H-pyrazol-5-yl)-3-(naphthalen-1-yl)-urea] | – | % @ concentration, uM (@ 10 uM): 85% @ 10 |
| CC(C)(C)c1cc(NC(=O)Nc2cccc(Cl)c2Cl)n(-c2cccc(CO)c2)n1 [Example 372, 1-[3-t-butyl-1-(3-hydroxymethyl-phenyl)-1H-pyrazol-5-yl]-3-(2,3-dichlorophenyl)-urea] | 1.46 | – |

| SMILES | IC50 [µM] | also measured |
| --- | --- | --- |
| CC(C)(C)c1cc(NC(=O)Nc2cccc(Cl)c2Cl)n(-c2cccc(C(=O)O)c2)n1 [Example 374, 3-{3-t-butyl-5-[3-(2,3-dichlorophenyl)ureido]-1H-pyrazol-1-yl}benzoic acid] | 0.037 | – |
| CC(C)(C)c1cc(NC(=O)Nc2ccc(Cl)cc2)n(-c2cccc(CO)c2)n1 [Example 376] | 0.48 | – |
| CC(C)(C)c1cc(NC(=O)Nc2ccc(Cl)cc2)n(-c2cccc(CN3C(=O)NC(=O)C3=O)c2)n1 [Example 378, 1-{3-t-butyl-2-{3-[(2,4,5-trioxoimidazolidin-1-yl)methyl]phenyl}-1H-pyrazol-3-yl}-3-(4-chlorophenyl)urea] | 0.4 | – |
| CC(C)(C)c1cc(NC(=O)Nc2ccc(Cl)cc2)n(-c2cccc(CN3C(=O)C(=O)NS3(=O)=O)c2)n1 [Example 380, 1-{5-t-butyl-2-[3-(1,1,3,4-tetraoxo-1λ^6-[1,2,5]thiadiazolidin-2-ylmethyl)phenyl]-2H-pyrazol-3-yl}-3-(4-chlorophenyl)urea] | 2 | – |
| CC(C)(C)c1cc(NC(=O)Nc2cccc3ccccc23)n(-c2cccc(CNC(=O)N3CCOCC3)c2)n1 [Example 382, 1-(3-t-butyl-1-{3-[(morpholine-4-carboxamido)methyl]phenyl}-1H-pyrazol-5-yl)-3-(naphthalen-1-yl)urea] | 0.88 | – |
| CC(C)(C)c1cc(NC(=O)Nc2cccc3ccccc23)n(-c2cccc(CNC(=O)N3CCCC3)c2)n1 [Example 383, 1-(3-t-butyl-1-{3-[(pyrrolidine-1-carboxamido)methyl]phenyl}-1H-pyrazol-5-yl)-3-(naphthalen-1-yl)urea] | 0.1 | – |
| CN(C)C(=O)NCc1cccc(-n2nc(C(C)(C)C)cc2NC(=O)Nc2cccc3ccccc23)c1 [Example 384, 1-{3-t-butyl-1-[3-(3,3-dimethylureidomethyl)phenyl]-1H-pyrazol-5-yl}-3-(naphthalen 1-yl)urea] | – | % @ concentration, uM (@ 1 uM): 72%; % @ concentration, uM (@ 10 uM): 96% |
| CC(C)(C)c1cc(NC(=O)Nc2ccc(Cl)cc2)n(-c2cccc(CNC(=O)N3CCCCC3)c2)n1 [Example 385, 1-(3-t-butyl-1-{3-[(piperidine-1-carboxamido)methyl]phenyl}-1H-pyrazol-5-yl)-3-(4-chlorophenyl)urea] | 0.03 | – |
| CC(C)(C)c1cc(NC(=O)Nc2ccc(Cl)cc2)n(-c2cccc(CNC(=O)N3CCOCC3)c2)n1 [Example 386, 1-(3-t-butyl-1-{3-[(morpholine-4-carboxamido)methyl]phenyl}-1H-pyrazol-5-yl)-3-(4-chlorophenyl)urea] | 0.114 | – |
| CC(C)(C)c1cc(NC(=O)Nc2ccc(Cl)cc2)n(-c2cccc(CNC(=O)N3CCCC3)c2)n1 [Example 387, 1-(3-r-butyl-1-{3-[(pyrrolidine-1-carboxamido)methyl]phenyl}-1H-pyrazol-5-yl)-3-(4-chlorophenyl)urea] | 4.45 | – |
| CN(C)C(=O)NCc1cccc(-n2nc(C(C)(C)C)cc2NC(=O)Nc2ccc(Cl)cc2)c1 [Example 388, 1-{3-t-butyl-1-[3-(3,3-dimethylureidomethyl)phenyl]-1H-pyrazol-5-yl}-3-(4-chlorophenyl)urea] | 1.65 | – |
| CN1CCN(C(=O)NCc2cccc(-n3nc(C(C)(C)C)cc3NC(=O)Nc3cccc4ccccc34)c2)CC1 [Example 389, 1-{3-t-butyl-1-(3-[(1-methylpiperazine-4-carboxamido)methyl]phenyl}-1H-pyrazol-5-yl)-3-(naphthalen 1-yl)urea] | 0.09 | – |
| CN1CCN(C(=O)NCc2cccc(-n3nc(C(C)(C)C)cc3NC(=O)Nc3ccc(Cl)cc3)c2)CC1 [Example 390, 1-{3-t-butyl-1-(3-[(1-methylpiperazine-4-carboxamido)methyl]phenyl}-1H-pyrazol-5-yl)-3-(4-chlorophenyl)urea] | – | % @ concentration, uM (@ 0.1 uM): 24%; % @ concentration, uM (@ 1 uM): 63% |
| CC(C)(C)c1cc(NC(=O)Nc2ccc(Cl)cc2)n(-c2cccc(CN3C(=O)C(=O)N(c4ccccc4)C3=O)c2)n1 [Example 391, 1-{3-t-butyl-1-(3-[(2,4,5-trioxo-3-phenylimidazolidin-1-yl)methyl]phenyl)-1H-pyrazol-5-yl}-3-(4-chlorophenyl)urea] | 0.91 | – |
| CC(C)(C)c1cc(NC(=O)Nc2ccc(Cl)cc2)n(-c2cccc(Cn3c(=O)[nH]n(-c4ccccc4)c3=O)c2)n1 [Example 392, 1-(3-t-butyl-1-{3-[(3,5-dioxo-1-phenyl-1,2,4-triazolidin-4-yl)methyl]phenyl}-1H-pyrazol-5-yl)-3-(4-chlorophenyl)urea] | – | % @ concentration, uM (@ 0.1 uM): 75%; % @ concentration, uM (@ 1 uM): 86% |
| CCOC(=O)c1cccc(-n2nc(C(C)(C)C)cc2NC(=O)Nc2ccc(F)cc2)c1 [Example 393, ethyl 3-{3-t-butyl-5-[3-(4-fluorophenyl)ureido)-1H-pyrazol-1-yl}benzoate] | 0.4 | – |
| CC(C)(C)c1cc(NC(=O)Nc2ccc(F)cc2)n(-c2cccc(Cn3c(=O)[nH]n(-c4ccccc4)c3=O)c2)n1 [Example 395, 1-{3-t-butyl-1-(3-[(3,5-dioxo-1-phenyl-1,2,4-triazolidin-4-yl)methyl]phenyl}-1H-pyrazol-5-yl)-3-(4-fluorophenyl)urea] | 0.056 | – |
